These results are taken from US20100048575A1, “NOVEL TETRACYCLIC INHIBITORS OF CYSTEINE PROTEASES, THE PHARMACEUTICAL COMPOSITIONS THEREOF AND THEIR THERAPEUTIC APPLICATIONS” (priority 2006, published 2010).

The target of test [1] is T1, USP5 (Homo sapiens, UniProt P45974).
T1 sequence (P45974 1-858): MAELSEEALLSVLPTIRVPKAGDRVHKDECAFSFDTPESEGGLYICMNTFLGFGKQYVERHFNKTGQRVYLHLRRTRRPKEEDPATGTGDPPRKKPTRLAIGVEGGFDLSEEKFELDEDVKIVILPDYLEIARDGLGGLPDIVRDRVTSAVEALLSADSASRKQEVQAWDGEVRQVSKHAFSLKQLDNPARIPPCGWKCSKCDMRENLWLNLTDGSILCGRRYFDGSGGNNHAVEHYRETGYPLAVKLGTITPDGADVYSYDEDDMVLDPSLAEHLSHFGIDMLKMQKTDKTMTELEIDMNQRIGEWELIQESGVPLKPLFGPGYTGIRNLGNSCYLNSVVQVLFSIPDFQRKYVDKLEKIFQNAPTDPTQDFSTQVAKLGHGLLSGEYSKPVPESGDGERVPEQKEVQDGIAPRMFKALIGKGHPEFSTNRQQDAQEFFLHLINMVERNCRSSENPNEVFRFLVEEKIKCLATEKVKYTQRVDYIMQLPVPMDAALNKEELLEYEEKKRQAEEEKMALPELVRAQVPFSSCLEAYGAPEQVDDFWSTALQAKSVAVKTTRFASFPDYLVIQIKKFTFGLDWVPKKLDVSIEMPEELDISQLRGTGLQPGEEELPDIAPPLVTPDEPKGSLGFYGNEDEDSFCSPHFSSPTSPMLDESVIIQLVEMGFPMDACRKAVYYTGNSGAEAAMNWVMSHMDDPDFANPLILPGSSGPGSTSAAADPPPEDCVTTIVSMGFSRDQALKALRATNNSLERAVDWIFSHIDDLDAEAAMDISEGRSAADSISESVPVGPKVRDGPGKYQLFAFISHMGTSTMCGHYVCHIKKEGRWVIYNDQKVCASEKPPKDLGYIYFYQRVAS
The test is described as follows: USP5 activity assay (Ub-AMC). Format: biochemical. To be noted: 400 nM Ub-AMC, 300 pM enzyme, 30 min pre-incubation, 60 min at 37° C., sigmoidal fit; read-out: USP5 (inhibition of cysteine protease activity). On the procedure: USP5 was diluted in USP buffer (50 mM Tris HCl; 0.5 mM EDTA; 5 mM DTT; 0.01% Triton X-100; Bovine Serum Albumin 0.05 mg.ml^−1 pH7.6). Compounds stocks (100 mM) were stored at −20° C. in DMSO.
Reactions were performed as duplicates in Black LJL 96 well plates (HE microplates; Molecular Devices; 20 μl final reaction volume). The substrate concentration for USP5 was 400 nM Ub-AMC (Boston Biochem). The concentrations of the enzyme (USP5) in specificity assays was 300 pM. The concentrations were determined in order to perform specificity assays under initial velocities at fixed substrate concentration. Compounds were pre-incubated with enzymes for 30 minutes at 25° C. Reactions were initiated by addition of substrate to the plates containing the enzymes (+/−compounds) diluted in assay buffer. Reactions were incubated for 60 minutes at 37° C. Reactions were stopped by adding acetic acid (100 mM final). Readings were performed on a Pherastar Fluorescent Reader (BMG). λ Emission 380 nm; λ Excitation=460 nm. Data (mean values +/−standard deviation) were analyzed as % of control (no compound) and plotted as percentage versus the Log of the compound concentration using GraphPad (Prism). Data were fitted to a sigmoidal model (variable slope).

Test [2] addresses Cathepsin B (Homo sapiens, UniProt P07858). The test is described as follows: Cathepsin B activity assay (z-RR-AMC). The test is classed as biochemical. To be noted: 36 μM z-RR-AMC, 3.6 nM enzyme, 30 min pre-incubation, 60 min at 37° C., sigmoidal fit; read-out: cathepB (inhibition of cysteine protease activity). On the procedure:
Cathepsin B was diluted in Cathepsin B buffer (20 mM Tris HCl pH 6.8; 1 mM EDTA; 1 mM DTT). Compounds stocks (100 mM) were stored at −20° C. in DMSO. Compounds were tested at the following final concentrations: 100 μM; 33.3 μM; 11.1 μM; 3.7 μM; 1.23 μM; 412 nM; 137 nM; 45.7 nM; 15.2 nM; 5 nM. Reactions were performed as duplicates in Black LJL 96 well plates (HE microplates; Molecular Devices; 20 μl final reaction volume). The substrate concentration for cathepsin B specificity assay was 36 μM (z-RR-AMC; Calbiochem). The concentration of the enzyme (Cathepsin B) in specificity assays was 3.6 nM. The concentrations were determined in order to perform specificity assays under initial velocities at fixed substrate concentration. Compounds were pre-incubated with enzymes for 30 minutes at 25° C. Reactions were initiated by addition of substrate to the plates containing the enzymes (+/−compounds) diluted in assay buffer. Reactions were incubated for 60 minutes at 37° C. Reactions were stopped by adding acetic acid (100 mM final). Readings were performed on a Pherastar Fluorescent Reader (BMG). δ Emission 380 nm; δ Excitation=460 nm. Data (mean values +/−standard deviation) were analyzed as % of control (no compound) and plotted as percentage versus the Log of the compound concentration using GraphPad (Prism). Data were fitted to a sigmoidal model (variable slope).

In the case of `C=CCON=C1c2ccccc2-c2nn3c(C)nnc3nc21` (mixture of isomers) [5b, 3-Methyl-1,2,3a,4,10-pentaaza-cyclopenta[b]fluoren-9-one O-allyl-oxime], the IC50 in test [1] amounted to 1150 nM. For `ON=C1c2ccccc2-c2nn3nnnc3nc21` (mixture of isomers) [compound 7, 1,2,3,3a,4,10-hexaaza-cyclopenta[b]fluoren-9-one oxime], the IC50 in test [2] was 890 nM. As for `c1ccc(OCCCON=C2c3ccccc3-c3nn4nnnc4nc32)cc1` (mixture of isomers) [8c, 1,2,3,3a,4,10-Hexaaza-cyclopenta[b]fluoren-9-one O-(3-phenoxy-propyl)-oxime], the IC50 in test [1] is 470 nM; in test [2], 3800 nM. Regarding `C=CCON=C1c2ccccc2-c2nn3c(CC)nnc3nc21` (mixture of isomers) [10f, 3-Ethyl-1,2,3a,4,10-pentaaza-cyclopenta[b]fluoren-9-one O-allyl-oxime], the IC50 in test [1] is 1200 nM.

In the case of `C=CCON=C1c2ccccc2-c2nn3nnnc3nc21` (mixture of isomers) [compound 6, 1,2,3,3a,4,10-hexaaza-cyclopenta[b]fluoren-9-one O-allyl-oxime], the IC50 in test [2] came out at 300 nM. With `C=CCON=C1c2ccccc2-c2nn3c(CCCC)nnc3nc21` (mixture of isomers) [5d, 3-Butyl-1,2,3a,4,10-pentaaza-cyclopenta[b]fluoren-9-one O-allyl-oxime], the IC50 was found to be 1420 nM in test [1] and 6700 nM in test [2]. On the same counts, the results for `CCCCCCCCCCON=C1c2ccccc2-c2nn3nnnc3nc21` (mixture of isomers) [8a, 1,2,3,3a, 4,10-Hexaaza-cyclopenta[b]fluoren-9-one O-decyl-oxime] are 54000 nM and 15800 nM. `CON=C1c2ccccc2-c2nn3c(C)nnc3nc21` (mixture of isomers) [5a, 3-Methyl-1,2,3a,4,10-pentaaza-cyclopenta[b]fluoren-9-one O-methyl-oxime]: the IC50 in test [1] came to 1800 nM; in test [2], 2600 nM.

With `COCCON=C1c2ccccc2-c2nn3nnnc3nc21` (mixture of isomers) [8b, 1,2,3,3a, 4,10-Hexaaza-cyclopenta[b]fluoren-9-one O-(2-methoxy-ethyl)-oxime], in test [2], the IC50 amounted to 2100 nM.
